Measured values: patent US5061722A, “Cis, endo-2-azabicyclo-[3.3.0]-octane-3-carboxylic acids, a process for their preparation, agents containing these compounds and their use” (Hoechst AG, priority 1981, dated 1991)

What was measured:
[1] = test system: pressor reaction induced by 310 ng of angiotensin I; assay: Intraduodenal administration to anesthetized rats, ED50; type: in vivo, rat
Description: (§1) 1. Intravenous administration to anesthetized rats, 50% inhibition of the pressor reaction induced by 310 ng of angiotensin I, 30 minutes after administration of the dose . . . ED50
2. Intraduodenal administration to anesthetized rats

[2] = test system: pressor reaction induced by 310 ng of angiotensin I; assay: Intravenous administration to anesthetized rats, 50% inhibition of the pressor reaction induced by 310 ng of angiotensin I; type: in vivo; conditions: Rattus norvegicus, 0.5 h, 30 minutes after administration of the dose
Description: as §1

[3] = test system: pressor reaction triggered off by intravenous administration of angiotensin I; assay: Oral administration to conscious rats, inhibition of the pressor reaction triggered off by intravenous angiotensin I; type: in vivo, rat; conditions: 1 mg/kg
[4] = Rattus norvegicus, read-out: ED50

SMILES | ED50 [1] [mg/kg] | ED50 [1, 4] [mg/kg] | ED50 [2] [mg/kg] | duration of the 90% inhibition of the pressor reaction [3] | inhibition of the pressor reaction triggered off by intravenous administration of angiotensin I [3] [%]
C[C@H](N[C@@H](CC(=O)c1ccccc1)C(=O)OCc1ccccc1)C(=O)N1C(C(=O)O)CC2CCCC21 (relative stereo) [X=C6H5, Y=--, Z=O, R1=CH3, R2=C7H7, N-(1-S-Carbobenzyloxy-3-oxo-3-phenyl-propyl)-S-alanyl-2-cis,endo-azabicyclo-[3.3.0]-octane-3-carboxylic acid] | 0.25 | – | – | – | –
CCOC(=O)[C@H](CC(=O)c1ccccc1)N[C@@H](C)C(=O)N1[C@H](C(=O)O)C[C@@H]2CCC[C@@H]21 [X=C6H5, Y=--, Z=O, R1=CH3, R2=C2H5, N-(1-S-carbethoxy-3-oxo-3-phenyl-propyl)-S-alanyl-cis,endo-2-azabicyclo-[3.3.0]-octane-3-S-carboxylic acid] | – | 0.28 | – | – | –
CCOC(=O)[C@H](CCc1ccccc1)N[C@@H](C)C(=O)N1[C@H](C(=O)O)C[C@@H]2CCC[C@@H]21 [X=C6H5, Y=H, Z=H, R1=CH3, R2=C2H5, N-(1-S-Carbethoxy-3-phenyl-propyl)-S-alanyl-cis,endo-2-azabicyclo-[3.3.0]-octane-3-S-carboxylic acid] | – | 0.05 | 0.0083 | over 6 hours | 90
C[C@H](N[C@@H](CCc1ccccc1)C(=O)O)C(=O)N1[C@H](C(=O)O)C[C@@H]2CCC[C@@H]21 [X=C6H5, Y=H, Z=H, R1=CH3, R2=H, N-(1-S-Carboxy-3-phenyl-propyl)-S-alanyl-cis,endo-2-azabicyclo-[3.3.0]-octane-3-S-carboxylic acid] | – | 0.6 | 0.0027 | – | –
